The record followed here is ChEMBL document CHEMBL1133775, “Potent and selective indolomorphinan antagonists of the kappa-opioid receptor” (J Med Chem, 2000).

SMILES strings stand for the structures.

In test [1] the target is Mu-type opioid receptor (Cavia porcellus) (UniProt P97266). In words: Opioid receptor mu 1 Antagonism (100 nM) is expressed as (Ke = [antagonist] / (IC50 ratio -1). It is filed as functional.
Test [2] in a line: Selectivity ratio, ratio of Ke value of Kappa to Delta opioid receptor.
Test [3] concerns the target Delta-type opioid receptor (Mus musculus) (UniProt P32300). In words: Ratio of the IC50 of delta receptor agonist, [D-Ala-2, D-Leu5]-enkephalin in the presence of compound in MVD divided by the control IC50. It is filed as functional.
Test [4] concerns the target Mu-type opioid receptor (Cavia porcellus) (UniProt P97266). In words: Ratio of the IC50 of mu receptor agonist, Morphine in the presence of compound in GPI divided by the control IC50. In kind it is functional.
Test [5] concerns the target T1, Opioid receptors; mu & kappa (Homo sapiens) (UniProt P41145+P35372). In words: Selectivity ratio, ratio of Ke value of Kappa to mu opioid receptor. In kind it is protein assay.
Test [6] deals with Kappa-type opioid receptor (Cavia porcellus) (UniProt P41144). Nature of the test: Ratio of the IC50 of Kappa receptor agonist, ethylketazocine in the presence of compound in GPI divided by the control IC50. It is filed as functional.
In test [7] the target is Mu-type opioid receptor (Rattus norvegicus, UniProt P33535). Nature of the test: Binding affinity on HEK293 cells transiently transfected with plasmids encoding the rat Opioid receptor mu 1. In kind it is cell-based.
Test [8] has as its target T1, Opioid receptors; mu & kappa (Homo sapiens). In words: Selectivity ratio, ratio of binding affinity of mu to kappa opioid receptor. It is filed as protein assay.
Test [9] can be described thus: Selectivity ratio, ratio of Ke value of mu to kappa opioid receptor.
The target of test [10] is T2, Opioid receptors; delta & kappa (Homo sapiens) (UniProt P41145+P41143). In words: Selectivity ratio, ratio of binding affinity of delta to kappa opioid receptor. It is filed as protein assay.
Test [11] deals with Kappa-type opioid receptor (Rattus norvegicus, UniProt P34975). In words: Binding affinity on HEK293 cells transiently transfected with plasmids encoding the rat Opioid receptor kappa 1. In kind it is cell-based.
Test [12] has as its target Kappa-type opioid receptor (Cavia porcellus) (UniProt P41144). Nature of the test: Opioid receptor kappa 1 Antagonism (100 nM) is expressed as (Ke = [antagonist] / (IC50 ratio -1). It is filed as functional.
Test [13] concerns the target Delta-type opioid receptor (Rattus norvegicus, UniProt P33533). Nature of the test: Binding affinity on HEK293 cells transiently transfected with plasmids encoding the rat Opioid receptor delta 1. It is filed as cell-based.
Test [14] has as its target T2, Opioid receptors; delta & kappa (Homo sapiens). In words: Selectivity ratio, ratio of Ke value of delta to kappa opioid receptor. It is filed as protein assay.
In test [15] the target is Delta-type opioid receptor (Mus musculus) (UniProt P32300). Nature of the test: Opioid receptor delta 1 Antagonism (100 nM) is expressed as (Ke = [antagonist] / (IC50 ratio -1). It is filed as functional.
Chain of Delta-type opioid receptor (Mus musculus) (P32300 whole entry): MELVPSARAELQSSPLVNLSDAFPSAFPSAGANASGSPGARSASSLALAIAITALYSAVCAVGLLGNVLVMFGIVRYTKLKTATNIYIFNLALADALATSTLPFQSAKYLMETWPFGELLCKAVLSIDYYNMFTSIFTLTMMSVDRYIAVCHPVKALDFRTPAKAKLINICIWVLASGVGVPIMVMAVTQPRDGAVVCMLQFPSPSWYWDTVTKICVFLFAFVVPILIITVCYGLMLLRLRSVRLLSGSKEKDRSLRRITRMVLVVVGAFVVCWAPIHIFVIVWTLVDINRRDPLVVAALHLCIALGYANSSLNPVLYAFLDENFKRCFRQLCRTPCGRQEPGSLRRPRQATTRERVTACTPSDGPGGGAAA

Chain of Delta-type opioid receptor (P33533 whole entry): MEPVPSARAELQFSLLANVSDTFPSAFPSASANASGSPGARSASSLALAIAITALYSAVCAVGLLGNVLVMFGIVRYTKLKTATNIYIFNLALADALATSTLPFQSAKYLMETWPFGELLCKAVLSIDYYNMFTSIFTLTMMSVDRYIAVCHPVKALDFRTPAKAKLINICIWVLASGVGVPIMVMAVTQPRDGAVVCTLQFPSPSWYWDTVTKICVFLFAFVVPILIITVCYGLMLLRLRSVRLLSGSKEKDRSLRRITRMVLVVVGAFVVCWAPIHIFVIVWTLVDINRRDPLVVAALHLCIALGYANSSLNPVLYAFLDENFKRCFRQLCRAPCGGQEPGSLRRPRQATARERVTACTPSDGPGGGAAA
T1 sequence (P35372 whole entry, looked up): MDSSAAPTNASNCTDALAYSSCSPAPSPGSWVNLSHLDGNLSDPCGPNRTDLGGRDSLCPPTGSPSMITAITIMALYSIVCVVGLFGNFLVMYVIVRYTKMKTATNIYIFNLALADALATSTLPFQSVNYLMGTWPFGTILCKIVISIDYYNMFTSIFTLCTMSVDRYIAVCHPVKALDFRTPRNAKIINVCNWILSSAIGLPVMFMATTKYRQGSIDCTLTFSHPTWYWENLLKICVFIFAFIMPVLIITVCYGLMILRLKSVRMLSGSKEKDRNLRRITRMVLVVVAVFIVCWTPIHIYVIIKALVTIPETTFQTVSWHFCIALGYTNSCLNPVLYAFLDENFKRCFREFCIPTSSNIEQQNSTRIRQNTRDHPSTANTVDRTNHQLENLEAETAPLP
T1 sequence (P41145 whole entry, looked up): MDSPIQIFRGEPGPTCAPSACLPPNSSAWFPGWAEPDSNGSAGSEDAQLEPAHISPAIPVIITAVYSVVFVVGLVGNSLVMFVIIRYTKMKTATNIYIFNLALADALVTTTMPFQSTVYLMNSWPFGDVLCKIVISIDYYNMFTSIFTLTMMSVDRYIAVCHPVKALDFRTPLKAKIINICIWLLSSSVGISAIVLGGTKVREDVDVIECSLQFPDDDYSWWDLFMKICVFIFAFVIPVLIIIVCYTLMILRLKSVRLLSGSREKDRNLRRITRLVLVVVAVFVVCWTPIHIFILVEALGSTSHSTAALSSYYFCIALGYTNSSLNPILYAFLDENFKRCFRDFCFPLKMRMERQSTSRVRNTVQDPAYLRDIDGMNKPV
Chain of Mu-type opioid receptor (Cavia porcellus) (P97266 whole entry): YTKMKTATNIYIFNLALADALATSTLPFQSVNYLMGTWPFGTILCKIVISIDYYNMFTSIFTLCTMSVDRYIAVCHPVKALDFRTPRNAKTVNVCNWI
Chain of Kappa-type opioid receptor (P34975 whole entry): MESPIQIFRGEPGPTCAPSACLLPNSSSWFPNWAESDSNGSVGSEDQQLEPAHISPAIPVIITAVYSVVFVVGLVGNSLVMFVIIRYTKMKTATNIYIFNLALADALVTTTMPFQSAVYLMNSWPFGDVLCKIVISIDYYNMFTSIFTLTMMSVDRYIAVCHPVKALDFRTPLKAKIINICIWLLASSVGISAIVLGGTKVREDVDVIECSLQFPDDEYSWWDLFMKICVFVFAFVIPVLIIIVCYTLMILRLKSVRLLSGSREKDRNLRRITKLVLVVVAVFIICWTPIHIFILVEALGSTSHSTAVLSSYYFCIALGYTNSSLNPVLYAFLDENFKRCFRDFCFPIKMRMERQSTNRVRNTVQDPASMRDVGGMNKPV
Chain of Kappa-type opioid receptor (Cavia porcellus) (P41144 whole entry): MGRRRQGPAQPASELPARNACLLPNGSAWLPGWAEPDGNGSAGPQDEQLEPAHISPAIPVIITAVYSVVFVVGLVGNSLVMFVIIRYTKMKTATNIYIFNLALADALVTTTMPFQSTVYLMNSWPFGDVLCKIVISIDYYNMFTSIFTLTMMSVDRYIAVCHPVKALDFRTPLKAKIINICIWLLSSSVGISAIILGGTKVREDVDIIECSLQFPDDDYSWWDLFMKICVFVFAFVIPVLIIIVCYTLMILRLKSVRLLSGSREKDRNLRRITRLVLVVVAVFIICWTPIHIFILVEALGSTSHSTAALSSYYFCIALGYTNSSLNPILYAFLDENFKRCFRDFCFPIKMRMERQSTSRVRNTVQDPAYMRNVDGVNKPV
T2 sequence (P41143 whole entry, looked up): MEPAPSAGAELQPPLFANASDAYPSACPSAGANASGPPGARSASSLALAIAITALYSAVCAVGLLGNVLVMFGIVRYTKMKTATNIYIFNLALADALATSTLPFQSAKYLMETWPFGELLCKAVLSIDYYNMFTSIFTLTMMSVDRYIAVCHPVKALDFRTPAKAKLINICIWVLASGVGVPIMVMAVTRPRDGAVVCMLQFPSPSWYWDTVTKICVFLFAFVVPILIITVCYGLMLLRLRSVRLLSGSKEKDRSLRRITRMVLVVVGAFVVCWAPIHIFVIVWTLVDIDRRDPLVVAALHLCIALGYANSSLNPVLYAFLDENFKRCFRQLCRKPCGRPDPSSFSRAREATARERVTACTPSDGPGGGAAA
T2 sequence (P41145 whole entry, looked up): as the sequence (P41145 whole entry, looked up) above
Chain of Mu-type opioid receptor (P33535 whole entry): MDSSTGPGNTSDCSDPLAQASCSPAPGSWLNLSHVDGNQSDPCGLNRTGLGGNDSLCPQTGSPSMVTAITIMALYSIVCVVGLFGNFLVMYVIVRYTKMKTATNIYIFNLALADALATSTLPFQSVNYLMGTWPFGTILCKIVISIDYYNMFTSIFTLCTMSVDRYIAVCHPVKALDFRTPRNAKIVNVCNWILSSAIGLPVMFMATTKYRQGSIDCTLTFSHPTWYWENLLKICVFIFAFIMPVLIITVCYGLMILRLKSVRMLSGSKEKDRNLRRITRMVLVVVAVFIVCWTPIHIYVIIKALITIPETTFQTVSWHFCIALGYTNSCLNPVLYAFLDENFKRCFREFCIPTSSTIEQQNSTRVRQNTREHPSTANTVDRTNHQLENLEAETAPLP

`Nc1ccc2[nH]c3c(c2c1)C[C@@]1(O)C2Cc4ccc(O)c5c4[C@@]1(CCN2CC1CC1)[C@H]3O5`: in test [1], the Ke is 57 nM. Further, the Ratio in test [2] was 0.4; in test [5], 1.5. For the same compound, the IC50 ratio turned out to be 10.3 in [3], 2.8 in [4] and 4 in test [6].

In general, Ki refers to the dissociation constant of the complex between target and ligand, obtained from inhibition or displacement. Low readings indicate tighter binding, high ones weaker binding. As to `CN(C)Cc1ccc2[nH]c3c(c2c1)C[C@@]1(O)C2Cc4ccc(O)c5c4[C@@]1(CCN2CC1CC1)[C@H]3O5`, the Ke was 9.8 nM in test [1] and 0.8 nM in test [12]. For the same compound, the Ratio in [2] was determined as 87; in [8], 44; in test [9], 12; in [10] it was 19. For the same compound, the Ki in [7] is 36 nM; in test [11], 0.823 nM; in [13] it was 15.7 nM. The IC50 ratio is 1.4 in test [3], 11.2 in test [4] and 125 in test [6].

As for `N/C(S)=N/c1ccc2[nH]c3c(c2c1)C[C@@]1(O)C2Cc4ccc(O)c5c4[C@@]1(CCN2CC1CC1)[C@H]3O5`, the Ke was 38 nM in test [1] and 7.2 nM in test [12]. Further, the Ratio in test [2] was 12; in test [9] it was 5.3. The IC50 ratio in test [3] was determined as 1.3; in test [4] it was 3.6; in test [6], 14.9.

`C[N+](C)(C)c1ccc2[nH]c3c(c2c1)C[C@@]1(O)C2Cc4ccc(O)c5c4[C@@]1(CCN2CC1CC1)[C@H]3O5`: the Ratio in [2] worked out at 9.1; in [5], 13. Moreover, the IC50 ratio in test [3] is 3.6; in test [4], 2.7; in test [6], 33.3. Moreover, in [12], the Ke was 3.1 nM.

For the compound `N#CN/C(N)=N/c1ccc2[nH]c3c(c2c1)C[C@@]1(O)C2Cc4ccc(O)c5c4[C@@]1(CCN2CC1CC1)[C@H]3O5`, the IC50 ratio was 12 in [3], 7.2 in test [4] and 33 in test [6]. Moreover, the Ratio in test [8] turned out to be 20; in test [9], 5.1; in test [10] it was 2; in test [14], 2.9.

For the compound `NCc1ccc2[nH]c3c(c2c1)C[C@@]1(O)C2Cc4ccc(O)c5c4[C@@]1(CCN2CC1CC1)[C@H]3O5`, the Ke amounted to 61 nM in [1], 18 nM in test [15] and 34 nM in test [12]. The IC50 ratio in test [3] turned out to be 6.4; in test [4] it was 2.6; in test [6], 3.9. For the same compound, the figures for the Ratio in test [9] and in test [14] were 1.8 and 0.5, respectively.

For the compound `CN(C)c1ccc2[nH]c3c(c2c1)C[C@@]1(O)C2Cc4ccc(O)c5c4[C@@]1(CCN2CC1CC1)[C@H]3O5`, the Ke was 36 nM in test [1] and 6.8 nM in [12]. The Ratio stood at 6.6 in test [2] and 5.3 in [9]. Besides, the IC50 ratio in [3] came out at 2.4; in test [4], 3.8; in test [6], 15.8.

`NCCc1ccc2[nH]c3c(c2c1)C[C@@]1(O)C2Cc4ccc(O)c5c4[C@@]1(CCN2CC1CC1)[C@H]3O5`: the results for the Ratio in test [2] and in test [5] were 21 and 15, respectively. Further, the IC50 ratio was 2.3 in test [3], 3.2 in test [4] and 48.1 in test [6]. The Ke in test [12] turned out to be 2.1 nM.

For the compound `N=C(N)c1ccc2[nH]c3c(c2c1)C[C@@]1(O)C2Cc4ccc(O)c5c4[C@@]1(CCN2CC1CC1)[C@H]3O5`, the results for the Ke in test [1] and in [12] were 16 nM and 0.7 nM, respectively. The values for the Ratio in [2] and in [9] were 142 and 22, respectively. Also, the values for the Ki in [7], in test [11] and in [13] were 65.7 nM, 0.529 nM and 112 nM, respectively. The results for the IC50 ratio in [3], in test [4] and in test [6] were 0.3, 7.2 and 142, respectively.

As to `CN1CC[C@]23c4c5ccc(O)c4O[C@H]2c2[nH]c4ccc(NC(=N)N)cc4c2C[C@@]3(O)C1C5`, the Ratio in [2] is 4.1; in test [8], 310; in [5] it was 6.3; in [10], more than 3530. In addition, the IC50 ratio in test [3] was found to be 1.7; in test [4] it was 1.1; in test [6], 6.8. In test [12], the Ke came out at 17 nM.

In the case of `C[N+](C)(C)Cc1ccc2[nH]c3c(c2c1)C[C@@]1(O)C2Cc4ccc(O)c5c4[C@@]1(CCN2CC1CC1)[C@H]3O5`, the Ke came to 4 nM in test [1] and 0.7 nM in [12]. Besides, the Ratio in [2] came out at 154; in test [8], 36; in test [9], 6.2; in test [10], 221. The Ki in test [7] turned out to be 12.8 nM; in [11], 0.354 nM; in test [13] it was 78.4 nM. The results for the IC50 ratio in test [3], in [4] and in [6] were 0.79, 25.8 and 154, respectively.

Consider `CN1CC[C@]23c4c5ccc(O)c4O[C@H]2c2[nH]c4ccc(N=C(N)N)cc4c2C[C@@]3(O)C1C5`, for which the Ki in test [7] was 876 nM; in [11], 2.83 nM; in test [13], more than 10000 nM.

Consider `N=C(N)NCc1ccc2[nH]c3c(c2c1)C[C@@]1(O)[C@H]2Cc4ccc(O)c5c4[C@@]1(CCN2CC1CC1)[C@H]3O5`, for which the Ke stood at 11 nM in test [1] and 0.6 nM in test [12]. Besides, the Ratio in [2] came to 172; in [8], 89; in test [9], 19; in [10] it was 41. The Ki in test [7] was 66 nM; in test [11], 0.745 nM; in [13], 30.8 nM. Further, the IC50 ratio in [3] amounted to 0.88; in test [4], 10.3; in test [6] it was 172.

As to `N#CN=C(N)Nc1ccc2[nH]c3c(c2c1)C[C@@]1(O)C2Cc4ccc(O)c5c4[C@@]1(CCN2CC1CC1)[C@H]3O5`, the Ki in test [7] turned out to be 89.8 nM; in test [11], 4.46 nM; in test [13], 9.46 nM.

For `Oc1ccc2c3c1O[C@H]1c4[nH]c5c(c4C[C@@]4(O)[C@@H](C2)N(CC2CC2)CC[C@]314)C[C@@]1(O)[C@H]2Cc3ccc(O)c4c3[C@@]1(CCN2CC1CC1)[C@H]5O4` [NORBINALTORPHIMINE], the Ki in [11] stood at 0.244 nM; in test [13], 41.5 nM.

For `N=C(N)N=C(N)Nc1ccc2[nH]c3c(c2c1)C[C@@]1(O)C2Cc4ccc(O)c5c4[C@@]1(CCN2CC1CC1)[C@H]3O5`, the Ki in test [7] was determined as 21.5 nM; in test [11], 0.226 nM; in test [13], 108 nM.

As for `CC(=N)Nc1ccc2[nH]c3c(c2c1)C[C@@]1(O)C2Cc4ccc(O)c5c4[C@@]1(CCN2CC1CC1)[C@H]3O5`, the Ke in [1] was 16 nM; in [12], 1 nM. For the same compound, the Ratio in test [2] was 52; in [9], 15. Also, the IC50 ratio was 1.9 in test [3], 7.5 in test [4] and 99.4 in test [6].

With `N=C(N)Cc1ccc2[nH]c3c(c2c1)C[C@@]1(O)C2Cc4ccc(O)c5c4[C@@]1(CCN2CC1CC1)[C@H]3O5`, the Ratio in [2] stood at 26. Besides, the Ki came to 40.8 nM in test [7], 0.214 nM in test [11] and 33 nM in test [13]. In addition, the IC50 ratio in test [3] worked out at 1.8; in test [4] it was 2.1; in test [6], 46.7. The Ke in test [12] is 2.2 nM.

`N=C(N)/N=C(\N)Nc1ccc2[nH]c3c(c2c1)C[C@@]1(O)C2Cc4ccc(O)c5c4[C@@]1(CCN2CC1CC1)[C@H]3O5`: the Ke came out at 14 nM in test [1] and 0.2 nM in test [12]. The Ratio is 512 in test [2], 95 in test [8], 74 in [9] and 478 in [10]. Further, the IC50 ratio stood at 0.41 in test [3], 7.9 in test [4] and 512 in test [6].

With `CN(C)CCc1ccc2[nH]c3c(c2c1)C[C@@]1(O)C2Cc4ccc(O)c5c4[C@@]1(CCN2CC1CC1)[C@H]3O5`, the values for the Ratio in test [2] and in [5] were 18 and 13, respectively. Besides, the IC50 ratio in test [3] was found to be 1.8; in [4] it was 2.4; in test [6], 32. In [12], the Ke worked out at 3.2 nM.

With `CC(=N)NCc1ccc2[nH]c3c(c2c1)C[C@@]1(O)C2Cc4ccc(O)c5c4[C@@]1(CCN2CC1CC1)[C@H]3O5`, the results for the Ke in test [1] and in test [12] were 8.8 nM and 6.1 nM, respectively. In addition, the Ratio in test [2] worked out at 17.3; in test [9], 1.4. The IC50 ratio in test [3] was found to be 0.88; in test [4] it was 12.4; in test [6], 17.3.

Take `CC(=N)NCCc1ccc2[nH]c3c(c2c1)C[C@@]1(O)C2Cc4ccc(O)c5c4[C@@]1(CCN2CC1CC1)[C@H]3O5`: the Ke in [1] came out at 7.6 nM; in test [12], 0.3 nM. The IC50 ratio amounted to 6.4 in test [3], 14.1 in [4] and 72.1 in [6]. In addition, the values for the Ratio in test [9] and in test [14] were 27 and 65, respectively.
